Measured values as given in publication PMC5224920, “Assessing the mechanism and therapeutic potential of modulators of the human Mediator complex-associated protein kinases” (eLife, 2016).

Tested on: 12 single or co-culture in vitro tissue models of primary cells
Assay: Culture/co-culture cell model panel, extracellular biomarkers (DiscoveRx); as to CCL2/MCP-1: reference of the scale not given here; as to CD38: reference of the scale not given here; as to CD40: reference of the scale not given here; as to CD69: reference of the scale not given here; as to CXCL8/IL-8: reference of the scale not given here; as to CXCL9/MIG: reference of the scale not given here; as to IL-1alpha: reference of the scale not given here; as to PBMC Cytotoxicity: reference of the scale not given here; as to SRB: reference of the scale not given here
Assay type: cell-based, human

Q: Which results are given for `Cn1ncc2cc(-c3cnc(N)c(Cl)c3N3CCC4(CCNC4=O)CC3)ccc21` [CMPD 3]?
A: Collagen IV (/TH2, 1.00E2 nM): 0.005; PBMC Cytotoxicity (/TH2, 1.00E2 nM): -0.011; SRB (/TH2, 1.00E2 nM): -0.080; sIL-17A (/TH2, 1.00E2 nM): 0.189; sIL-17F (/TH2, 1.00E2 nM): 0.137; CCL2/MCP-1 (/TH2, 1.00E3 nM): -0.046; CCL26/Eotaxin-3 (/TH2, 1.00E3 nM): -0.134; CD38 (/TH2, 1.00E3 nM): -0.012; CD40 (/TH2, 1.00E3 nM): -0.080; CD69 (/TH2, 1.00E3 nM): -0.021; CD87/uPAR (/TH2, 1.00E3 nM): -0.141; CD106/VCAM-1 (/TH2, 1.00E3 nM): 0.028; CXCL8/IL-8 (/TH2, 1.00E3 nM): -0.057; CXCL9/MIG (/TH2, 1.00E3 nM): 0.006; Collagen IV (/TH2, 1.00E3 nM): 0.010; PBMC Cytotoxicity (/TH2, 1.00E3 nM): -0.023; SRB (/TH2, 1.00E3 nM): -0.067; sIL-17A (/TH2, 1.00E3 nM): 0.134; sIL-17F (/TH2, 1.00E3 nM): -0.079; CCL2/MCP-1 (/TH2, 1.00E4 nM): -0.053; CCL26/Eotaxin-3 (/TH2, 1.00E4 nM): -0.136; CD38 (/TH2, 1.00E4 nM): -0.016; CD40 (/TH2, 1.00E4 nM): -0.061; CD69 (/TH2, 1.00E4 nM): -0.044; CD87/uPAR (/TH2, 1.00E4 nM): -0.146; CD106/VCAM-1 (/TH2, 1.00E4 nM): 0.003; CXCL8/IL-8 (/TH2, 1.00E4 nM): -0.053; CXCL9/MIG (/TH2, 1.00E4 nM): 0.006; Collagen IV (/TH2, 1.00E4 nM): 0.012; PBMC Cytotoxicity (/TH2, 1.00E4 nM): -0.036; SRB (/TH2, 1.00E4 nM): -0.126; sIL-17A (/TH2, 1.00E4 nM): 0.054; sIL-17F (/TH2, 1.00E4 nM): -0.082; CCL26/Eotaxin-3 (BENo, 1.00E0 nM): 0.067; CD54/ICAM-1 (BENo, 1.00E0 nM): 0.017; CD87/uPAR (BENo, 1.00E0 nM): 0.077; CXCL8/IL-8 (BENo, 1.00E0 nM): 0.016; CXCL9/MIG (BENo, 1.00E0 nM): 0.068; CXCL10/IP-10 (BENo, 1.00E0 nM): 0.115; CXCL11/I-TAC (BENo, 1.00E0 nM): 0.039; EGFR (BENo, 1.00E0 nM): 0.00071; HLA-DR (BENo, 1.00E0 nM): 0.048; IL-1alpha (BENo, 1.00E0 nM): 0.048; Keratin 8/18 (BENo, 1.00E0 nM): 0.051; MMP-1 (BENo, 1.00E0 nM): 0.028; MMP-9 (BENo, 1.00E0 nM): 0.043; PAI-I (BENo, 1.00E0 nM): 0.010; SRB (BENo, 1.00E0 nM): 0.002; tPA (BENo, 1.00E0 nM): 0.014; uPA (BENo, 1.00E0 nM): 0.036; CCL26/Eotaxin-3 (BENo, 1.00E1 nM): -0.035; CD54/ICAM-1 (BENo, 1.00E1 nM): -0.015; CD87/uPAR (BENo, 1.00E1 nM): 0.086; CXCL8/IL-8 (BENo, 1.00E1 nM): -0.015; CXCL9/MIG (BENo, 1.00E1 nM): 0.025; CXCL10/IP-10 (BENo, 1.00E1 nM): 0.020; CXCL11/I-TAC (BENo, 1.00E1 nM): 0.032; EGFR (BENo, 1.00E1 nM): -0.005; HLA-DR (BENo, 1.00E1 nM): 0.084; IL-1alpha (BENo, 1.00E1 nM): 0.021; Keratin 8/18 (BENo, 1.00E1 nM): 0.032; MMP-1 (BENo, 1.00E1 nM): 0.022; MMP-9 (BENo, 1.00E1 nM): 0.026; PAI-I (BENo, 1.00E1 nM): 0.003; SRB (BENo, 1.00E1 nM): 0.000675; tPA (BENo, 1.00E1 nM): -0.00178; uPA (BENo, 1.00E1 nM): 0.034; CCL26/Eotaxin-3 (BENo, 1.00E2 nM): 0.029; CD54/ICAM-1 (BENo, 1.00E2 nM): -0.086; CD87/uPAR (BENo, 1.00E2 nM): 0.074; CXCL8/IL-8 (BENo, 1.00E2 nM): 0.050; CXCL9/MIG (BENo, 1.00E2 nM): 0.027; CXCL10/IP-10 (BENo, 1.00E2 nM): 0.029; CXCL11/I-TAC (BENo, 1.00E2 nM): 0.038; EGFR (BENo, 1.00E2 nM): -0.028; HLA-DR (BENo, 1.00E2 nM): 0.002; IL-1alpha (BENo, 1.00E2 nM): 0.024; Keratin 8/18 (BENo, 1.00E2 nM): 0.019; MMP-1 (BENo, 1.00E2 nM): -0.044; MMP-9 (BENo, 1.00E2 nM): -0.012; PAI-I (BENo, 1.00E2 nM): -0.079; SRB (BENo, 1.00E2 nM): -0.00126; tPA (BENo, 1.00E2 nM): -0.018; uPA (BENo, 1.00E2 nM): 0.039; CCL26/Eotaxin-3 (BENo, 1.00E3 nM): 0.016; CD54/ICAM-1 (BENo, 1.00E3 nM): -0.027; CD87/uPAR (BENo, 1.00E3 nM): 0.042; CXCL8/IL-8 (BENo, 1.00E3 nM): -0.000244; CXCL9/MIG (BENo, 1.00E3 nM): 0.034; CXCL10/IP-10 (BENo, 1.00E3 nM): 0.016; CXCL11/I-TAC (BENo, 1.00E3 nM): 0.033; EGFR (BENo, 1.00E3 nM): 0.028; HLA-DR (BENo, 1.00E3 nM): 0.049; IL-1alpha (BENo, 1.00E3 nM): 0.018; Keratin 8/18 (BENo, 1.00E3 nM): 0.022; MMP-1 (BENo, 1.00E3 nM): -0.000325; MMP-9 (BENo, 1.00E3 nM): -0.016; PAI-I (BENo, 1.00E3 nM): -0.078
